Measured values reported in article doi:10.1101/2022.03.22.485260v1 (biorxiv, 2022).
Like-named read-outs stand apart in the source and are kept apart here.

How the values were obtained:
[1] = molecular target: T1, hTMPK (thymidylate kinase) (Homo sapiens, UniProt P23919); test: NADH-coupled; type: biochemical
T1 sequence (P23919 2-212): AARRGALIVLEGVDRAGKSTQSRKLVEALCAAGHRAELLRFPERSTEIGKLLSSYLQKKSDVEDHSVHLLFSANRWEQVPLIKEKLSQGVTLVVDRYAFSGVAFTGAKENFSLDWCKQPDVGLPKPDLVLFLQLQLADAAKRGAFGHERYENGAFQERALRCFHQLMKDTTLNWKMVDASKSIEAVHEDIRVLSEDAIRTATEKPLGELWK

[2] = molecular target: T1, hTMPK (thymidylate kinase); test: NADH-coupled assay, […] min pre-incubation, non-linear fit; type: biochemical; settings: ATP varied 0-200 μM, 500 μM TMP; mixed inhibition; pH 7.5, 25 °C

Compound | IC50 [1] [nM] | Ki [2] [nM] | IC50 ([1]; 500 μM ATP, 500 μM dTMP, 10 mM MgCl2, pH 7.5, 25 °C) [nM]
CC(C)(C)OC(=O)N1CCN(C(=O)Cn2sc3ccccc3c2=O)CC1 [JMF2977] | 500 | – | –
Tert-butyl 4-(2-(5-fluoro-3-oxobenzo[d]isothiazol-2(3H)-yl) acetyl) piperazine-1-carboxylate [JMF4073] | – | 5 | 160
